Measured values from patent US20060166900A1, “Salt of morphine-6-glucuronide” (CeNeS Limited, priority 2002, published 2006).

How the values were obtained:
Format in all cases: physicochemical
[1] = Visual appearance on storage (Example 3)
Procedure: (§1) Each test material was stored between 2-8*C prior to placing on stability. Each material was sub-divided into 900 mg aliquots, transferred to brown opaque HDPE plastic bottles and flushed with Argon prior to sealing. Sufficient samples were provided for each time point as well as spares for each storage condition. The samples were placed in appropriate incubators previously commissioned at storage conditions 25° C./60% RH, 40° C./75% RH and 60° C.
The samples were stored for analysis according to the following table: […]

[2] = Water content by Karl Fisher analysis on storage (Example 3)
Procedure: Water content (% w/w) by Karl Fisher analysis
as §1
Water Content by Karl Fisher Analysis
Water content was determined in duplicate on an aliquot of equilibrated material (approximately 100 mg) using a Tritrino 720 KFS Titrator.

[3] = Colour of solution by visible spectrophotometry on storage (Example 3); details: 5% w/v solution in water
Procedure: Colour of solution by UV spectrophotometry.
as §1
Colour by Visible Spectrophotometry
A 5% w/v solution of test material was prepared in water and the absorbance measured at 420 nm in a 1 cm silica cell using a Unicam UV4 Visible/UV spectrophotometer.

[4] = Stability indicating HPLC assay and related substances on storage (Example 3)
Procedure: Assay (% w/w) and related substances determination
as §1
Testing Procedures Test for Identity Content and Impurities
Testing was performed in duplicate (2×25 mg) in accordance with a stability indicating HPLC assay method. The assay results were reported as M6G as is, M6G as the anhydrous, solvent free material and the anhydrous solvent free material corrected for the salt form using the relevant conversion factor.

CN1CCC23c4c5ccc(O)c4OC2C(OC2OC(C(=O)O)C(O)C(O)C2O)C=CC3C1C5.CN1CCC23c4c5ccc(O)c4OC2C(OC2OC(C(=O)O)C(O)C(O)C2O)C=CC3C1C5.O=C(O)C=CC(=O)O (stereo not shown) [Morphine-6-glucuronide maleate]
Appearance ([1]; 1 month, 25° C./60% RH): White crystalline powder | Appearance ([1]; 1 month, 40° C./75% RH): Pale yellow crystalline powder | Appearance ([1]; 1 month, 60° C.): Yellow crystalline powder | Appearance ([1]; 3 months, 25° C./60% RH): Pale yellow crystalline powder | Appearance ([1]; 3 months, 40° C./75% RH): Yellow crystalline powder | Appearance ([1]; Initial): White crystalline powder | Moisture ([2]; 1 month, 25° C./60% RH): 7.53 % w/w | Moisture ([2]; 1 month, 40° C./75% RH): 7.60 % w/w | Moisture ([2]; 1 month, 60° C.): 5.01 % w/w | Moisture ([2]; 3 months, 25° C./60% RH): 7.14 % w/w | Moisture ([2]; 3 months, 40° C./75% RH): 9.24 % w/w | Moisture ([2]; Initial): 6.14 % w/w | Colour ([3]; 1 month, 25° C./60% RH): 0.084 Abs@420 nm | Colour ([3]; 1 month, 40° C./75% RH): 0.297 Abs@420 nm | Colour ([3]; 1 month, 60° C.): 0.739 Abs@420 nm | Colour ([3]; 3 months, 25° C./60% RH): 0.209 Abs@420 nm | Colour ([3]; 3 months, 40° C./75% RH): 0.879 Abs@420 nm | Colour ([3]; Initial): 0.017 Abs@420 nm | Known Related Substances HN33177 ([4]; 1 month, 25° C./60% RH): 0.76% | Known Related Substances HN67003 ([4]; 1 month, 25° C./60% RH): 0.17% | Known Related Substances HN75083 ([4]; 1 month, 25° C./60% RH): 0.05% | M6G Assay, Anhydrous basis ([4]; 1 month, 25° C./60% RH): 86.66 % w/w | M6G Assay, As is basis ([4]; 1 month, 25° C./60% RH): 80.27 % w/w | M6G Assay, Corrected for the salt form ([4]; 1 month, 25° C./60% RH): 97.56 % w/w | Total Known ([4]; 1 month, 25° C./60% RH): 0.98% | Total Related Substances ([4]; 1 month, 25° C./60% RH): 1.39% | Total Unknown ([4]; 1 month, 25° C./60% RH): 0.41% | Known Related Substances HN33177 ([4]; 1 month, 40° C./75% RH): 0.65% | Known Related Substances HN67003 ([4]; 1 month, 40° C./75% RH): 0.94% | Known Related Substances HN75076 ([4]; 1 month, 40° C./75% RH): 0.03% | Known Related Substances HN75083 ([4]; 1 month, 40° C./75% RH): 0.03% | Known Related Substances Morphine ([4]; 1 month, 40° C./75% RH): 0.12% | M6G Assay, Anhydrous basis ([4]; 1 month, 40° C./75% RH): 83.28 % w/w | M6G Assay, As is basis ([4]; 1 month, 40° C./75% RH): 77.07 % w/w | M6G Assay, Corrected for the salt form ([4]; 1 month, 40° C./75% RH): 93.75 % w/w | Total Known ([4]; 1 month, 40° C./75% RH): 1.77% | Total Related Substances ([4]; 1 month, 40° C./75% RH): 4.80% | Total Unknown ([4]; 1 month, 40° C./75% RH): 3.03% | Known Related Substances HN33177 ([4]; 1 month, 60° C.): 0.50% | Known Related Substances HN67003 ([4]; 1 month, 60° C.): 1.20% | Known Related Substances HN75076 ([4]; 1 month, 60° C.): 0.14% | Known Related Substances HN75083 ([4]; 1 month, 60° C.): 0.02% | Known Related Substances Morphine ([4]; 1 month, 60° C.): 0.32% | M6G Assay, Anhydrous basis ([4]; 1 month, 60° C.): 80.36 % w/w | M6G Assay, As is basis ([4]; 1 month, 60° C.): 76.46 % w/w | M6G Assay, Corrected for the salt form ([4]; 1 month, 60° C.): 90.47 % w/w | Total Known ([4]; 1 month, 60° C.): 2.18% | Total Related Substances ([4]; 1 month, 60° C.): 6.09% | Total Unknown ([4]; 1 month, 60° C.): 3.91% | Known Related Substances HN33177 ([4]; 3 months, 25° C./60% RH): 0.52% | Known Related Substances HN67003 ([4]; 3 months, 25° C./60% RH): 0.58% | Known Related Substances HN75083 ([4]; 3 months, 25° C./60% RH): 0.06% | Known Related Substances Morphine ([4]; 3 months, 25° C./60% RH): 0.04% | M6G Assay, Anhydrous basis ([4]; 3 months, 25° C./60% RH): 85.11 % w/w | M6G Assay, As is basis ([4]; 3 months, 25° C./60% RH): 80.04 % w/w | M6G Assay, Corrected for the salt form ([4]; 3 months, 25° C./60% RH): 95.81 % w/w | Total Known ([4]; 3 months, 25° C./60% RH): 1.20% | Total Related Substances ([4]; 3 months, 25° C./60% RH): 3.55% | Total Unknown ([4]; 3 months, 25° C./60% RH): 2.35% | Known Related Substances HN33177 ([4]; 3 months, 40° C./75% RH): 0.50% | Known Related Substances HN67003 ([4]; 3 months, 40° C./75% RH): 1.68% | Known Related Substances HN75076 ([4]; 3 months, 40° C./75% RH): 0.40% | Known Related Substances Morphine ([4]; 3 months, 40° C./75% RH): 0.43% | M6G Assay, Anhydrous basis ([4]; 3 months, 40° C./75% RH): 78.73 % w/w | M6G Assay, As is basis ([4]; 3 months, 40° C./75% RH): 72.37 % w/w | M6G Assay, Corrected for the salt form ([4]; 3 months, 40° C./75% RH): 88.63 % w/w | Total Known ([4]; 3 months, 40° C./75% RH): 3.01% | Total Related Substances ([4]; 3 months, 40° C./75% RH): 9.94% | Total Unknown ([4]; 3 months, 40° C./75% RH): 6.93% | drop in assay compared to the initial values ([4]; 3 months, 40° C./75% RH): around 10% | Known Related Substances HN33177 ([4]; Initial): 0.76% | Known Related Substances HN67003 ([4]; Initial): 0.04% | Known Related Substances HN75083 ([4]; Initial): 0.05% | M6G Assay, Anhydrous basis ([4]; Initial): 88.28 % w/w | M6G Assay, As is basis ([4]; Initial): 83.61 % w/w | M6G Assay, Corrected for the salt form ([4]; Initial): 99.40 % w/w | Total Known ([4]; Initial): 0.85% | Total Related Substances ([4]; Initial): 0.85% | Total Unknown ([4]; Initial): 0.00%
